Values quoted from earlier work as cited in patent US20080124386A1, “APOPTOSIS-MIMICKING SYNTHETIC ENTITIES AND USE THEREOF IN MEDICAL TREATMENT” (Vasogen Ireland Limited, priority 2000, published 2008).

Legend:
[1] = tested on: spatial memory; conditions: oral, 50 mg/day; compared with placebo
[2] = tested on: Alzheimer's disease; conditions: oral, 300 mg/day; compared with placebo

phosphatidylserine [PS]
spatial memory in animal models [1]: statistically significant improvements | treatment of Alzheimer's disease in humans [2]: statistically significant improvements
